How the values were obtained:
[1] = molecular target: T1, Sodium- and chloride-dependent GABA transporter 1 (Rattus norvegicus, UniProt P23978); assay: Inhibition of GAT-1 in rat brain homogenate; format: tissue-based
[2] = molecular target: T2, Sodium- and chloride-dependent GABA transporter 1 (Mus musculus, UniProt P31648); assay: Inhibition of mouse GAT-1 expressed in HEK293 cells assessed as decrease in [3H]GABA uptake preincubated for 25 mins followed by [3H]GABA addition and measured after 4 mins by scintillation counting analysis; format: cell-based
[3] = molecular target: T2, Sodium- and chloride-dependent GABA transporter 1; assay: Binding affinity to mouse GAT-1 expressed in HEK293 cells after 4 hrs in presence of NO711 by LC-ESI-MS/ms analysis; format: cell-based
[4] = molecular target: T3, GABA transporter 4 (Mus musculus) (UniProt P31650); assay: Inhibition of mouse GAT-4 expressed in HEK293 cells assessed as remaining [3H]GABA uptake at 100 uM preincubated for 25 mins followed by [3H]GABA addition and measured after 4 mins by scintillation counting analysis; format: cell-based
T3 sequence (whole entry): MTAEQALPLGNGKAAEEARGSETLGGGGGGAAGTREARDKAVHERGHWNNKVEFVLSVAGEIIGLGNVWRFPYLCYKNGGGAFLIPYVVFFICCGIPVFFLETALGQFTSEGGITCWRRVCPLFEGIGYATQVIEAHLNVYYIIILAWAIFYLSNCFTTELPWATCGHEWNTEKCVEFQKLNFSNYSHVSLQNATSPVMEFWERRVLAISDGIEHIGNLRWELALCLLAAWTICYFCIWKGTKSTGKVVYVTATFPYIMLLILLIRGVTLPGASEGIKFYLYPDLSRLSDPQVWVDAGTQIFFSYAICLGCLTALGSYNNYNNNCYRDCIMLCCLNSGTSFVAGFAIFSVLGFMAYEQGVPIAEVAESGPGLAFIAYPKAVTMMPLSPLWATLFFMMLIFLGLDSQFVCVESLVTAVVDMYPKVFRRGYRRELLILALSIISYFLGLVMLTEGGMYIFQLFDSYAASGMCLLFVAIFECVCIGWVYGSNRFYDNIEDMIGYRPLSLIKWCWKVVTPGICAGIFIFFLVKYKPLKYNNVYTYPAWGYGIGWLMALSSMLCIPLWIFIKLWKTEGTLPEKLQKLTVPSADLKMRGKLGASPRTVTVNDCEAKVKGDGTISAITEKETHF

[5] = test system: Sodium- and chloride-dependent GABA transporter 2 (Mus musculus); assay: Inhibition of mouse GAT-3 expressed in HEK293 cells assessed as remaining [3H]GABA uptake at 100 uM preincubated for 25 mins followed by [3H]GABA addition and measured after 4 mins by scintillation counting analysis
[6] = test system: Sodium- and chloride-dependent betaine transporter (Mus musculus); assay: Inhibition of mouse GAT-2 expressed in HEK293 cells assessed as remaining [3H]GABA uptake at 100 uM preincubated for 25 mins followed by [3H]GABA addition and measured after 10 mins by scintillation counting analysis
GABA transporter 4 = molecular target: T4, GABA transporter 4 (Mus musculus, UniProt P31650); assay: Inhibition of mouse GAT-4 expressed in HEK293 cells assessed as decrease in [3H]GABA uptake preincubated for 25 mins followed by [3H]GABA addition and measured after 4 mins by scintillation counting analysis; format: cell-based
T4 sequence (P31650 whole entry): T3 sequence (whole entry)

[7] = molecular target: T1, Sodium- and chloride-dependent GABA transporter 1; assay: Inhibition of GAT-1 in rat brain homogenate assessed as decrease in [3H]GABA uptake preincubated for 8 mins followed by [3H]GABA addition and measured after 8 mins by scintillation counting analysis; format: tissue-based
[8] = molecular target: Sodium- and chloride-dependent GABA transporter 1 (Mus musculus) (UniProt P31648); assay: Inhibition of mouse GAT-1 assessed as percentage of remaining specific binding of NO711 at 1 uM after 4 hrs by LC-ESI-MS/ms analysis relative to control
[9] = molecular target: Sodium- and chloride-dependent GABA transporter 1 (Mus musculus) (UniProt P31648); assay: Inhibition of mouse GAT-1 assessed as percentage of remaining specific binding of NO711 at 100 nM after 4 hrs by LC-ESI-MS/ms analysis relative to control
[10] = molecular target: Sodium- and chloride-dependent GABA transporter 1 (Mus musculus) (UniProt P31648); assay: Inhibition of mouse GAT-1 assessed as percentage of remaining specific binding of NO711 at 40 uM after 4 hrs by LC-ESI-MS/ms analysis relative to control
[11] = molecular target: Sodium- and chloride-dependent GABA transporter 1 (Mus musculus) (UniProt P31648); assay: Inhibition of mouse GAT-1 assessed as percentage of remaining specific binding of NO711 at 4 uM after 4 hrs by LC-ESI-MS/ms analysis relative to control

Row | Structure (SMILES) | Activity [8] | Activity [9] | also measured
1 | O=C(O)[C@@H]1CCCN(CCO/N=C(\Cc2ccccc2F)c2ccccc2F)C1 |  |  | IC50 [1]: 80 nM
2 | O=C(O)C1=CCCN(CCO/N=C/c2ccccc2-c2ccc(Cl)cc2Cl)C1 |  |  | IC50 [2]: 5.37 nM; Ki [3]: 5.13 nM
3 | O=C(O)[C@@H]1CCCN(CCO/N=C/c2ccccc2-c2ccc(F)cc2Cl)C1 |  |  | IC50 [2]: 32.4 nM; Ki [3]: 2.82 nM; Activity [4]: 50.9%; Activity [5]: 77.7%; Activity [6]: 50.1%
4 | O=C(O)C1=CCCN(CCO/N=C/c2ccccc2-c2ccc(F)cc2F)C1 |  |  | IC50 [2]: 56.2 nM; Ki [3]: 4.47 nM
5 | O=C(O)[C@@H]1CCCN(CCO/N=C/c2ccccc2-c2ccc(F)cc2F)C1 |  |  | IC50 [2]: 102 nM; Ki [3]: 5.89 nM; Activity [4]: 62.5%; Activity [5]: 75.5%; Activity [6]: 56.6%
6 | O=C(O)[C@@H]1CCCN(CCO/N=C/c2ccccc2-c2ccc(Cl)cc2Cl)C1 |  |  | IC50 [2]: 60.3 nM; IC50 (GABA transporter 4): 63100 nM; Ki [3]: 5.89 nM
7 | O=C(O)C1=CCCN(CCON=C(c2ccccc2)c2ccccc2)C1 |  |  | IC50 [7]: 40 nM
8 | O=C(O)C1CCCN(CCO/N=C/c2ccccc2-c2ccc(Cl)cc2Cl)C1 (racemic) | 5% | Below limit of detection | IC50 [2]: 38.9 nM; IC50 (GABA transporter 4): 70800 nM; Ki [3]: 10.5 nM
9 | O=C(O)C1CCCN(CCO/N=C/c2ccccc2-c2ccc(F)cc2F)C1 (racemic) | 17% | 16% | IC50 [2]: 85.1 nM; Ki [3]: 13.8 nM; Activity [4]: 62.5%; Activity [5]: 90.9%; Activity [6]: 78.3%
10 | O=C(O)C1CCCN(CCO/N=C/c2cc(F)ccc2-c2ccc(Cl)cc2Cl)C1 (racemic) | 16% | Below limit of detection | IC50 [2]: 170 nM; IC50 (GABA transporter 4): 32400 nM; Ki [3]: 17 nM
11 | O=C(O)C1CCCN(CCO/N=C/c2sccc2-c2ccc(Cl)cc2Cl)C1 (racemic) | 12% | Below limit of detection | IC50 [2]: 28.2 nM; IC50 (GABA transporter 4): 72400 nM; Ki [3]: 11.7 nM
12 | O=C(O)C1CCCN(CCO/N=C/c2ccccc2-c2ccc(F)cc2Cl)C1 (racemic) | 11% | Below limit of detection | IC50 [2]: 66.1 nM; Ki [3]: 10 nM; Activity [4]: 80.9%; Activity [5]: 62.6%; Activity [6]: 61.6%
13 | CC(/C=N/OCCN1CCCC(C(=O)O)C1)(CCC#N)c1ccccc1 (racemic) | 7% | 48% | 
14 | Cc1onc(-c2ccc(Cl)cc2)c1/C=N/OCCN1CCCC(C(=O)O)C1 (racemic) | 7% | 48% | 
15 | NOCCN1CCCC(C(=O)O)C1 (racemic) |  |  | Activity [10]: 92%; Activity [11]: 99%
16 | O=C(O)C1CCCN(CCO/N=C/C(c2ccccc2)c2ccccc2)C1 (racemic) | 41% | 20% | 
17 | O=C(O)C1CCCN(CCO/N=C/c2c[nH]nc2-c2ccc(F)cc2)C1 (racemic) | 7% | 48% | 
18 | O=C(O)C1CCCN(CCO/N=C/c2cc(F)ccc2-c2ccccc2)C1 (racemic) | 58% | 16% | 
19 | O=C(O)C1CCCN(CCO/N=C/c2cc(F)ccc2-c2ccccc2Cl)C1 (racemic) | 41% | 16% | 
20 | O=C(O)C1CCCN(CCO/N=C/c2cc(F)ccc2-c2ccccc2F)C1 (racemic) | 42% | 16% | 
21 | O=C(O)C1CCCN(CCO/N=C/c2ccc(-c3ccc(C(F)(F)F)cc3Cl)o2)C1 (racemic) | 83% | Below limit of detection | 

Row | Structure (SMILES) | Activity [8] | Activity [9] | also measured
22 | O=C(O)C1CCCN(CCO/N=C/c2ccc(-c3ccccc3)cc2)C1 (racemic) | 80% | 20% | 
23 | O=C(O)C1CCCN(CCO/N=C/c2ccc(-c3ccccc3OC(F)(F)F)o2)C1 (racemic) | 84% | Below limit of detection | 
24 | O=C(O)C1CCCN(CCO/N=C/c2cccc(-c3ccccc3)c2)C1 (racemic) | 87% | 20% | 
25 | O=C(O)C1CCCN(CCO/N=C/c2ccccc2-c2c(F)cccc2F)C1 (racemic) | 39% | 17% | 
26 | O=C(O)C1CCCN(CCO/N=C/c2ccccc2-c2cc(F)ccc2F)C1 (racemic) | 71% | 17% | 
27 | O=C(O)C1CCCN(CCO/N=C/c2ccccc2-c2ccc(Cl)cc2)C1 (racemic) | Below limit of detection | 38% | 
28 | O=C(O)C1CCCN(CCO/N=C/c2ccccc2-c2ccc(Cl)cc2F)C1 (racemic) | 24% | 17% | 
29 | O=C(O)C1CCCN(CCO/N=C/c2ccccc2-c2ccc(F)cc2)C1 (racemic) | Below limit of detection | 38% | 
30 | O=C(O)C1CCCN(CCO/N=C/c2ccccc2-c2ccc3ccccc3c2)C1 (racemic) | 89% | Below limit of detection | 
31 | O=C(O)C1CCCN(CCO/N=C/c2ccccc2-c2cccc(Cl)c2)C1 (racemic) | Below limit of detection | 38% | 
32 | O=C(O)C1CCCN(CCO/N=C/c2ccccc2-c2cccc(F)c2)C1 (racemic) | Below limit of detection | 38% | 
33 | O=C(O)C1CCCN(CCO/N=C/c2ccccc2-c2cccc(F)c2F)C1 (racemic) | 39% | 17% | 
34 | O=C(O)C1CCCN(CCO/N=C/c2ccccc2-c2ccccc2)C1 (racemic) | 47% | 20% | 
35 | O=C(O)C1CCCN(CCO/N=C/c2ccccc2-c2ccccc2Cl)C1 (racemic) | 26% | Below limit of detection | 
36 | O=C(O)C1CCCN(CCO/N=C/c2ccccc2-c2ccccc2F)C1 (racemic) | 25% | Below limit of detection | 
37 | O=C(O)C1CCCN(CCO/N=C/c2ccccc2-c2cccs2)C1 (racemic) | 7% | 48% | 
38 | O=C(O)C1CCCN(CCO/N=C/c2ccccc2-n2cccn2)C1 (racemic) | 37% |  | 
39 | O=C(O)C1CCCN(CCO/N=C/c2cccn2-c2ccc(C(F)(F)F)cc2)C1 (racemic) | 91% | Below limit of detection | 
40 | O=C(O)C1CCCN(CCO/N=C/c2cccnc2-c2ccc(Cl)cc2Cl)C1 (racemic) | 31% | Below limit of detection | 
41 | O=C(O)C1CCCN(CCO/N=C/c2sccc2-c2ccc(F)cc2Cl)C1 (racemic) | 24% | Below limit of detection | 
42 | Cc1ccsc1C(=CCCN1CCC[C@@H](C(=O)O)C1)c1sccc1C [TIAGABINE] |  |  | Ki [3]: 55 nM
